{
  "source": "patent US20070105912A1",
  "about": "“Pharmaceutical compositions comprising lercanidipine” (priority 2003, published 2007)",
  "origin": "cited, not measured here",
  "note": "Where “and” joins values, the source holds several entries; their conditions need not be identical. Equal entries are not always repeated.",
  "data": [
    {"smiles": "COC(=O)C1=C(C)NC(C)=C(C(=O)OC(C)(C)CN(C)CCC(c2ccccc2)c2ccccc2)C1c1cccc([N+](=O)[O-])c1", "note": "(centres unmarked) [Lercanidipine, methyl 1,1-N-trimethyl-N-(3,3-diphenylpropyl)aminoethyl 1,4dihydro 6-dimethyl (3-nitrophenyl)pyridine-3,5-dicarboxylate]", "values": [
      {"measurement": "Bound to plasma proteins", "setting": "plasma proteins", "value": "more than 98%"},
      {"measurement": "Terminal elimination t1/2", "setting": "in vivo", "value": "2 to 5", "unit": "h"},
      {"measurement": "Time of peak plasma levels following dosing", "setting": "oral administration", "value": "1.5 to 3", "unit": "h"},
      {"measurement": "Fraction of the oral dose excreted in urine", "setting": "oral dose", "value": "about 50%"},
      {"measurement": "Increase of amount absorbed with simultaneous intake of food", "setting": "oral, with food vs without food", "value": "3 to 4 times and 3-4 times"}
    ]}
  ]
}
